According to PubChem BioAssay (NCI):
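Method: 48-hour compound exposure of cells in 96-well plates, five concentrations, linear interpolation of endpoints. GI50: concentration for 50% inhibition of growth. TGI is the concentration that stops growth completely.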

Key:
Assay in all cases: inhibition of tumour cell growth, NCI panel, 48 h
[1] = test system: A498 renal
[2] = test system: LOX IMVI melanoma
[3] = test system: SR leukemia
[4] = test system: HCT-15 colon
[5] = test system: OVCAR-4 ovarian
[6] = test system: NCI-H23 lung
[7] = test system: MDA-MB-231 breast
[8] = test system: HCT-116 colon
[9] = test system: HL-60(TB) leukemia
[10] = test system: OVCAR-3 ovarian

Compound | GI50 [1] [µM] | TGI [1] [µM] | GI50 [2] [µM] | TGI [2] [µM] | GI50 [3] [µM] | TGI [3] [µM] | GI50 [4] [µM] | TGI [4] [µM] | GI50 [5] [µM] | TGI [5] [µM] | GI50 [6] [µM] | TGI [6] [µM] | GI50 [7] [µM] | TGI [7] [µM] | GI50 [8] [µM] | TGI [8] [µM] | GI50 [9] [µM] | TGI [9] [µM] | GI50 [10] [µM] | TGI [10] [µM]
Nc1nc(-c2cccc(Cl)c2)c(-c2ccc3ncccc3n2)s1 | 8.4 | > 25 | > 25 | > 25 | > 25 | > 25 | > 25 | > 25 | > 25 | > 25 | > 25 | > 25 | > 25 | > 25 | > 25 | > 25 | > 25 | > 25 | > 25 | > 25
COc1ccc(OC)c(C(=O)c2oc3ccc(Br)cc3c2N)c1 | 0.0923 | 1.56 | 0.581 | 22.4 | 0.193 | 19.1 | 0.214 | 14.2 | 3.61 | > 100 | 0.649 | 24 | 0.847 | 26.7 | 0.346 | 13.9 | 0.27 | 10.3 | 0.347 | 3.28
COC(=O)c1c(C)[nH]c(/C=C2\N=C(c3ccc[nH]3)C=C2OC)c1C | 2.64 | 10.7 | – | – | 0.0947 | 0.679 | 0.0375 | 1.24 | 0.571 | 2.44 | 0.483 | 4.55 | 0.169 | 1.27 | 0.0378 | 1.2 | 0.164 | 2.33 | 0.152 | 2.09
COc1cc2c(c(OC)c1OC)-c1c(cc3c(c1OC)OCO3)C1OC2C(C)C1C (configuration not stated) (tested in a mixture with another compound) | – | > 100 | – | > 100 | – | > 100 | – | > 100 | – | > 100 | – | > 100 | – | > 100 | – | > 100 | – | > 100 | – | > 100
C=C1CC[C@@H]2[C@](C)(COC(C)=O)[C@H](OC(C)=O)CC[C@@]2(C)[C@@H]1CC(Nc1ccc(S(=O)(=O)Nc2ncccn2)cc1)C1=CCOC1=O (some centres not stated) | 12.3 | 24.7 | 0.891 | 2.21 | 0.313 | 17.2 | 1.21 | 3.33 | 1.85 | 5.26 | 2.11 | 5.38 | 1.95 | 3.93 | 0.879 | 2.49 | 1.3 | 3.64 | 1.21 | 2.54
CCc1oc2ccccc2c1C(=O)c1cc(I)c(O)c(I)c1 | 3.84 | 17 | 3.51 | 17.1 | 0.568 | 17.9 | 2.26 | 14.1 | 5.07 | 18.1 | 3.91 | 17.4 | 5.64 | 20.8 | 2.91 | 12 | 1.62 | 8.74 | 2.04 | 5.12
Cc1ccc(C(=O)Nc2ccc(CN3CCN(C)CC3)c(C(F)(F)F)c2)cc1C#Cc1cnc(N)c2ccccc12 | 0.31 | 1.3 | 0.509 | 1.09 | 0.134 | 2.66 | 0.142 | 0.849 | 0.219 | 1.33 | 0.799 | 1.76 | 0.519 | 1.22 | 0.336 | 1.01 | 0.491 | 2.41 | 0.578 | 1.35
O=C(/C(=C/c1cccc([N+](=O)[O-])c1)c1ccccc1)c1ccccc1 | 2.69 | 12.9 | – | – | 2.7 | > 100 | 2.75 | 16.5 | 4.26 | 16 | 2.92 | 17 | 4.01 | > 100 | 2.01 | 4.25 | – | – | 3.66 | 10.9
COc1ccc(/C=C\c2cc(OC)c(OC)c(OC)c2)cc1OC(=O)NCCN(C)C | – | 0.0303 | – | > 100 | – | – | – | – | – | – | – | 0.00431 | – | 0.023 | – | – | – | 0.00338 | – | 0.00347
Cn1c2ccccc2c2c3[nH]c(=O)[nH]c(=O)c3c3c4ccccc4n(C)c3c21 | 0.0475 | 4.37 | 2.13 | 11.9 | – | – | 1.62 | > 100 | – | – | 3.47 | 19.4 | 5.41 | 31.4 | 2.37 | 12.9 | > 100 | > 100 | 2.38 | 7
Cc1nc(-c2ccccc2)c(-c2ccccc2)s1 | – | 64.4 | – | 37.1 | – | – | – | 39 | – | > 100 | – | 97.7 | – | 69.6 | – | 68.8 | – | 28.5 | – | 87.4
CC(C)CCCC(=O)CCCCCCC(=O)CCN(O)C(=O)C(N)CO (configuration not stated) | – | 31.8 | – | 30.9 | – | – | – | 42.6 | – | – | – | 32.1 | – | 34.7 | – | 38 | – | 60.2 | – | 41.6
COc1ccc(C2SCC(=O)N2NC(=O)Nc2c(C)nc3ccccn23)cc1 (configuration not stated) | 27.8 | 60.3 | 27.1 | > 100 | – | – | > 100 | > 100 | > 100 | > 100 | – | – | 15.8 | 34.7 | 17.1 | 42.8 | > 100 | > 100 | > 100 | > 100
C=C[C@H]1C[C@@H]2C[C@@H]3[C@H]4C/C=C\C(=O)NCCCC5NC(=O)C(=C(O)/C=C/[C@@H]4CC(=O)[C@H]3[C@@H]2[C@H]1C)C5=O (some centres not stated) | 0.175 | 0.369 | 0.187 | 0.368 | – | – | 0.294 | 0.949 | 0.21 | 0.413 | 0.627 | 1.47 | 0.232 | 0.537 | 0.287 | 1.1 | 1.68 | 3.42 | 0.183 | 0.334
